Source: PubChem BioAssay (NCI)
“And” between values parts separate entries of the source, which are not always exact repeats. Equal entries are not always repeated.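 Cultured in 96-well plates, cells were exposed to test compound for 48 hours across five concentrations. The concentration for 50% growth inhibition is given as GI50. TGI: total growth inhibition.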

Tests used:
Test in all cases: DTP human tumour cell line panel, 48 h
MOLT-4 leukemia = test system: MOLT-4 leukemia
COLO 205 colon = test system: COLO 205 colon
NCI-H226 lung = test system: NCI-H226 lung
HL-60(TB) leukemia = test system: HL-60(TB) leukemia
M19-MEL melanoma = test system: M19-MEL melanoma
SNB-19 CNS = test system: SNB-19 CNS
NCI-H460 lung = test system: NCI-H460 lung
HCT-15 colon = test system: HCT-15 colon
SF-539 CNS = test system: SF-539 CNS
A498 renal = test system: A498 renal
OVCAR-4 ovarian = test system: OVCAR-4 ovarian
NCI-H522 lung = test system: NCI-H522 lung

| Compound | TGI (MOLT-4 leukemia) | TGI (COLO 205 colon) | TGI (NCI-H226 lung) | TGI (HL-60(TB) leukemia) | TGI (M19-MEL melanoma) | TGI (SNB-19 CNS) | TGI (NCI-H460 lung) | TGI (HCT-15 colon) | TGI (SF-539 CNS) | TGI (A498 renal) | TGI (OVCAR-4 ovarian) | TGI (NCI-H522 lung) | GI50 (MOLT-4 leukemia) | GI50 (COLO 205 colon) | GI50 (HL-60(TB) leukemia) | GI50 (M19-MEL melanoma) | GI50 (SNB-19 CNS) | GI50 (HCT-15 colon) | GI50 (SF-539 CNS) | GI50 (A498 renal) |
| --- | --- | --- | --- | --- | --- | --- | --- | --- | --- | --- | --- | --- | --- | --- | --- | --- | --- | --- | --- | --- |
| Nc1nn(CC(O)CO)c(=O)s1 (configuration not stated) | > 100 µM | > 100 µM | > 100 µM | > 100 µM | > 100 µM | > 100 µM | > 100 µM | > 100 µM | > 100 µM | > 100 µM | > 100 µM | – | – | – | – | – | – | – | – | – |
| N/C(=N\N=C\c1cc2c(cc1Cl)OCO2)NO | > 100 µM | > 100 µM | > 93.7 µM | 41.7 µM | > 100 µM | > 45.4 µM | > 100 µM | > 100 µM | > 95.6 µM | > 100 µM | > 100 µM | > 100 µM | – | – | – | – | – | – | – | – |
| O=C1OC(c2ccc(Cl)cc2)(c2ccc(Cl)cc2)c2c1ccc1ccccc21 | > 100 µM | > 100 µM | > 100 µM | > 100 µM | > 100 µM | > 100 µM | > 100 µM | > 100 µM | – | > 100 µM | > 100 µM | > 100 µM | – | – | – | – | – | – | – | – |
| CCOC(=O)C1=NN(c2ccc(Cl)cc2)C2=CC(C)=NN(C)C(=S)N21 | > 100 µM | > 100 µM | – | > 100 µM | – | > 100 µM | > 100 µM | > 100 µM | 56.5 µM | – | > 100 µM | 46.9 µM | – | – | – | – | – | – | – | – |
| C=CC[N+](CCO)(CCO)CCCCCCCCCCCCCCCCCC | 3.85 µM | 11 µM | 28.7 µM | 2.51 µM | 11.9 µM | 35.3 µM | 19.2 µM | 41.4 µM | 13.1 µM | 42.5 µM | 16.4 µM | 13.5 µM | – | – | – | – | – | – | – | – |
| COc1ccc(/C=N/n2cnc3c(c2=O)S/C(=C2/SC(=S)N(c4ccc(C)cc4)C2=O)N3c2ccccc2)cc1 | > 10 µM | > 100 µM | > 100 µM | > 100 µM | > 100 µM | 83.5 µM | > 100 µM | > 100 µM | > 100 µM | – | 94.1 µM | > 100 µM | – | – | – | – | – | – | – | – |
| C[C@H](CN1CC(=O)NC(=O)C1)N1CC(=O)NC(=O)C1 | > 47.5 µM | > 72.8 µM | > 100 µM | – | > 100 µM | > 100 µM | > 100 µM | > 100 µM | > 100 µM | > 100 µM | > 100 µM | > 71.2 µM | – | – | – | – | – | – | – | – |
| C=C1C(=O)O[C@@H]2OC3(C)CCC4C(C)CCC1C42OO3 (some centres not stated) | 5.96 µM and 5.53 µM | 12.4 µM and 10.8 µM | 27.2 µM and 24.2 µM | 3.55 µM and 2 µM | 14.7 µM and 13.9 µM | 26.5 µM and 27.9 µM | 8.04 µM and 5.58 µM | 9.95 µM and 4.02 µM | 11.7 µM and 6.62 µM | 6.56 µM and 10.6 µM | 32.4 µM and 26 µM | 3.88 µM and 3.16 µM | 2.23 µM | 3.99 µM | 1.18 µM | 2.44 µM | 12.6 µM | 2.3 µM | 3.07 µM | 2.57 µM |
